Measured values published in patent publication US8216821B2, “Regulation of heterologous recombinant protein expression in methylotrophic and methanotrophic bacteria” (National Research Council of Canada, priority 2005, dated 2012).

Assays:
[1] = tested on: cym and cmt operons; settings: P. putida F1, regulated by cymR; cited from earlier work
[2] = tested on: M. extorquens (cymR2); assay type: cell-based, Methylobacterium extorquens; settings: cumate 1-30 μg/ml
Protocol: M. extorquens (ATCC 55366) was used for the preparation of the heterologous gene expression host. E. coli strain Top10 was used for cloning and propagation of recombinant DNA and S17-1λpir (recA, thi, pro, hsdR^−M^+ RP4:2-Tc:Mu:Km Tn7, pir lysogen; Sm^R, Tp^R) was used for propagation of the helper plasmid (23). E. coli was cultured in Luria Bertani broth (LB) at 37° C. Strain of M. extorquens was grown in CHOI medium, as previously described (17) and 1% (v/v) methanol was used as sole carbon source. Both media were solidified by 1.8% agar (Difco) when appropriate. Antibiotics were used for E. coli and M. extorquens at the following concentrations (in ug/ml): ampicillin, 100; kanamycin (Km), 40; tetracyclin (Tc), 35.
(§1) To test the optimal concentration of inducer, cumate, recombinant M. extorquens (cymR2) transformed with pCUM-gfp was grown to mid-log phase (0.8-1.0 units at OD600) at 30° C. followed by induction with cumate at different concentrations. Reporter gene expression was detectable 4 h post induction. Cumate induction was very sensitive since about 47% of reporter gene expression was obtained with 1 μg cumate/ml (FIG. 5). […] Optimum cumate concentration for effective induction of reporter gene expression was 15 μg/ml (ca. 0.1 mM).

[3] = biological target: T1, repressor protein (cymR) (Pseudomonas putida, UniProt O33453); assay: cumate induction of gfp reporter gene expression in M. extorquens (cymR2) transformed with pCUM-gfp; assay type: cell-based, Pseudomonas putida F1
T1 construct: expressed in transfected cells; host or cells: Methylobacterium extorquens ATCC 55366, strain cymR2 (two cymR copies integrated by mini-Tn7 under PmxaF), carrying pCUM-gfp
T1 sequence (O33453 whole entry): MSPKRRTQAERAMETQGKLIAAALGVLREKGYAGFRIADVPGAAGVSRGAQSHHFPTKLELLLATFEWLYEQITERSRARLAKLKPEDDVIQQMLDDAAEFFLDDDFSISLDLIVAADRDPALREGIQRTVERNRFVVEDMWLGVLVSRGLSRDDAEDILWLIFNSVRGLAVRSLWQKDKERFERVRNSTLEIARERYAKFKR
Protocol: Detection of gene expression Detection of GFP was carried out by fluorescence microscopy, and quantified by using a SPECTRAFluor Plus (TECAN Austria Gmbh, GrodIg, Austria) under excitation and emission wavelengths of 485 and 508 nm, respectively. Concentration of GFP was calculated based on a linear relationship between concentration and fluorescence units determined using solutions of purified GFP (Qbiogene). The biomass (X) was determined by cell dry weight measurement of the samples (Moisture Analyzer MA 30, Sartorius).
as §1

Row | SMILES | induction of cym/cmt operon expression [1] | effect on growth [2] | cumate concentration giving maximum gene expression ([3]; FIG. 5, gfp expression) | time post induction at which reporter gene expression was detectable ([3]; cumate at different concentrations) [h] | optimum cumate concentration for effective induction of reporter gene expression ([3]; induced at OD600 0.8-1.0, 30° C.) [µg/mL] | optimum cumate concentration for effective induction of reporter gene expression ([3]; molar equivalent of 15 μg/ml) | time post induction of maximum GFP expression ([3]; pCUM-GFP clones, FIG. 7a, cumate 15 μg/ml) [h]
1 | Cc1ccc(C(C)C)cc1 [p-cymene, p-isopropyltoluene] | not |  |  |  |  |  | 
2 | CC(C)c1ccc(C(=O)O)cc1 [cumate, p-isopropylbenzoate] | Induction is afforded | No growth difference | 15-30 μg cumate/ml | 4 | 15 | ca. 0.1 mM | 30
